Experimental data reported in US10954216B2, “BMP-signal-inhibiting compound” (RIKEN, priority 2016, dated 2021).

Columns and labels:
[1] = molecular target: human ALK6 (Homo sapiens (Human), UniProt O00238); assay: ALK6 enzyme inhibitory effect (33P-ATP kinase assay, Reaction Biology); format: biochemical; conditions: ALK6, test compound 300 nM; read-out: Inhibition rate at 300 nM
From the text: (§1) ALK Enzyme Inhibitory Effect
(§2) Evaluation conditions were described in the following web pages. http://www.reactionbiology.corrilwebapps/site/Kinase_Assay_Protocol.aspx http://www.reactionbiology.corrilwebapps/site/KinaseDetail.aspx?page=Kinases&id=1

[2] = test system: BMP signal in MDA-231-D-BREFluc/Rluc cells; assay: BMP signal inhibitory effect (AlphaScreen SureFire SMAD1 p-Ser463/465, BMP-6 stimulation); format: cell-based; conditions: BMP-6 stimulated MDA-231-D-BREFluc/Rluc cells, phospho-SMAD1 AlphaScreen; read-out: IC50
Outline: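 Read-out was phospho-SMAD1 (Ser463/465) by AlphaScreen SureFire after 30 min BMP-6 stimulation at 37° C. Before stimulation, MDA-231-D-BREFluc/Rluc cells were incubated with test compound at 37° C for 2 h.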

[3] = molecular target: human ALK3 (Homo sapiens (Human), UniProt P36894); assay: ALK3 enzyme inhibitory effect (33P-ATP kinase assay, Reaction Biology); format: biochemical; conditions: ALK3, test compound 300 nM; read-out: Inhibition rate at 300 nM
Sequence of human ALK3 (P36894 24-532): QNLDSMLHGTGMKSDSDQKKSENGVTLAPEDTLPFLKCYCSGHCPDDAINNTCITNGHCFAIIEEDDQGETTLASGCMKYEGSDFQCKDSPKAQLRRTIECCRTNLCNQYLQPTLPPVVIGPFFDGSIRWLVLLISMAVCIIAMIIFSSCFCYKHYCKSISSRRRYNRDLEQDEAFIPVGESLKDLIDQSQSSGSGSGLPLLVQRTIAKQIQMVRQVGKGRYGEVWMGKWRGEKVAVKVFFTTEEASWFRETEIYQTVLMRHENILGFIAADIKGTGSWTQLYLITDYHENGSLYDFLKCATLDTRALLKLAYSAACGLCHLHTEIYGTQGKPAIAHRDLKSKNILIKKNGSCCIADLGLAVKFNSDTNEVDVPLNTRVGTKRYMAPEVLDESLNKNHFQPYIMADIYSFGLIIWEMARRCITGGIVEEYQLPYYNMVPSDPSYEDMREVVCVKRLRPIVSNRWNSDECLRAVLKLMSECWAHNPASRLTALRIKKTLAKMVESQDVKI
From the text: as §1, §2

[4] = molecular target: human ALK2 (Homo sapiens (Human), UniProt Q04771); assay: ALK2 enzyme inhibitory effect (33P-ATP kinase assay, Reaction Biology); format: biochemical; conditions: ALK2, 10 μM ATP, 20 μM casein
Sequence of human ALK2 (Q04771 21-509): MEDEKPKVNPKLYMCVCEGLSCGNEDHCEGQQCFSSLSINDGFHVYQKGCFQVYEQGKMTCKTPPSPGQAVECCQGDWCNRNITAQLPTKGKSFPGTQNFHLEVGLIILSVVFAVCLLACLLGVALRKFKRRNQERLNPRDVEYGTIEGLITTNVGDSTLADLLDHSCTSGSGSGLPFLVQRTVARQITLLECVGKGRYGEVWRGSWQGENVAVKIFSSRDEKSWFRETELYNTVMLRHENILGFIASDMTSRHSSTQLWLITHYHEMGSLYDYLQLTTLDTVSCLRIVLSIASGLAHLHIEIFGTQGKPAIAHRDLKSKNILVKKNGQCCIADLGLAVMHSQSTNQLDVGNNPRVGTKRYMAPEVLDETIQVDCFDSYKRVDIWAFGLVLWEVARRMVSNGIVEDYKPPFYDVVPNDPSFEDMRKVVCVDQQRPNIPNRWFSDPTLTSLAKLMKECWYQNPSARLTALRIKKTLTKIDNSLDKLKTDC
From the text: as §1, §2

Sequence of human ALK6 (O00238 14-502): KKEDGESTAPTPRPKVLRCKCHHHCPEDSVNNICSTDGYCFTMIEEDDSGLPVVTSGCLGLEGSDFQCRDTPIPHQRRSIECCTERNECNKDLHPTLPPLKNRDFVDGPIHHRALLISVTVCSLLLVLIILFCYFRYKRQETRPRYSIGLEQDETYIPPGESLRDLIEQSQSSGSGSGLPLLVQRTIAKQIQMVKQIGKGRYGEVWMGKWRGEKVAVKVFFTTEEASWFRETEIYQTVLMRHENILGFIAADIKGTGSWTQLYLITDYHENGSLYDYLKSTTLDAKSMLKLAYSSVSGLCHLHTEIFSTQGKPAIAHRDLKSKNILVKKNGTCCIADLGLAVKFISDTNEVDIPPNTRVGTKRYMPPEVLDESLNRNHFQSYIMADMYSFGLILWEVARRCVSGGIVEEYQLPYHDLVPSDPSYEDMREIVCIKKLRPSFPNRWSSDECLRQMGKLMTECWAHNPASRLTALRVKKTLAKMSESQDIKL

| inhibition at 0.3 µM [1] [%] | IC50 [2] [nM] | inhibition at 0.3 µM [3] [%] | IC50 [4] [nM] | Compound |
| --- | --- | --- | --- | --- |
| 88.5 | 7.3 | 62.4 | 66 | CCn1cc(-c2ccnc(Nc3ccc(N4CCC(C)(N)CC4)cc3)n2)c(-c2cccnc2)n1 [Example 176, N-(4-(4-amino-4-methylpiperidin-1-yl)phenyl)-4-(1-ethyl-3-(pyridin-3-yl)-1H-pyrazol-4-yl)pyrimidin-2-amine] |
| 94.3 | 5.7 | 62.4 | 31 | CCn1cc(-c2ccnc(Nc3ccc4c(c3)CN(CCO)CC4)n2)c(-c2cccnc2)n1 [Example 179, 2-(7-((4-(1-ethyl-3-(pyridin-3-yl)-1H-pyrazol-4-yl)pyrimidin-2-yl)amino)-3,4-dihydroisoquinolin-2(1H)-yl)ethan-1-ol] |
